Bases are written 5' to 3'; sugars and linkages follow in the same order, as letters with counts (s phosphorothioate, o phosphodiester; PS: all linkages phosphorothioate). C may stand for cytosine or 5-methylcytosine; the collection does not tell. l = locked nucleic acid (LNA); d = 2'-deoxy (DNA)

For this data set, the target named is HIF1A. The data set is described as follows: HeLa, 100 nM transfected, 24 h, mean of 3. Particulars: ASO.
With “GTTACTGCCTTCT (sugars l1 d1 l1 d8 l2, PS)”, the caspase activation (% of PBS control) came out at 123.
Sequence “TGGCAAGCATCCTGTA (sugars lddddddddddldldl, PS)” came in with a caspase activation (% of PBS control) of 228.
“GTTACTGCCTTCTTAC (sugars llddldddddddlddl, PS)” registered a caspase activation (% of PBS control) of 197.
Turning to “TGGCAAGCATCCTGTA (sugars l2 d9 l1 d1 l3, PS)”, the caspase activation (% of PBS control) stood at 369.
The value for “GTTACTGCCTTCTTAC (sugars l2 d2 l1 d9 l2, PS)” was 138; that for “GTTACTGCCTTCTTAC (sugars ldllddddddddlddl, PS)” was 183; that for “GTTACTGCCTTCTTAC (sugars lllllddddddldldl, PS)” was 467.
Sequence “GTTACTGCCTTCTTAC (sugars llddlddddddldldl, PS)” came in with a caspase activation (% of PBS control) of 235.
In the case of “GTTACTGCCTTCTTAC (sugars l3 d9 l1 d2 l1, PS)”, the caspase activation (% of PBS control) came out at 185.
The value for ACTGCCTTCTTAC (sugars l4 d8 l1, PS) was 387; that for “GTTACTGCCTTCTTAC (sugars ldldddddddddldll, PS)” was 112; that for “GTTACTGCCTTCT (sugars l2 d1 l1 d6 l3, PS)” was 183.
The figure for “TGGCAAGCATCCT (sugars l2 d1 l1 d8 l1, PS)” is 383; for “GGCAAGCATCCTG (sugars ldllddddddldl, PS)” it is 370.
“TGGCAAGCATCCTGTA (sugars ldldlddddddddldl, PS)” yielded a caspase activation (% of PBS control) of 176.
Turning to “GTTACTGCCTTCTTAC (sugars ldldldddddddddll, PS)”, the caspase activation (% of PBS control) is 151.
The figure for CAAGCATCCTGTA (sugars l3 d7 l3, PS) is 437.
The figure for TTACTGCCTTCTT (sugars l2 d8 l3, PS) is 270; for “TGGCAAGCATCCTGTA (sugars ldlldddddddldddl, PS)” it is 229; for “TGGCAAGCATCCTGTA (sugars llddlddddddldldl, PS)” it is 390.
Sequence “GTTACTGCCTTCTTAC (sugars l2 d1 l2 d10 l1, PS)” returned a caspase activation (% of PBS control) of 161.
For GGCAAGCATCCTG (sugars l4 d6 l3, PS), the caspase activation (% of PBS control) worked out at 618.
The value for “GTTACTGCCTTCTTAC (sugars lldllddddddldddl, PS)” was 260; that for TACTGCCTTCTTA (sugars l2 d8 l3, PS) was 363; that for TGGCAAGCATCCTGTA (sugars l2 d10 l4, PS) was 346.
The figure for “GGCAAGCATCCTG (sugars l1 d2 l1 d7 l2, PS)” is 361.
The figure for TGGCAAGCATCCT (sugars l3 d9 l1, PS) is 287.
Take “TGGCAAGCATCCT (sugars l1 d1 l1 d8 l2, PS)”: the caspase activation (% of PBS control) stood at 145.
The figure for “GTTACTGCCTTCTTAC (sugars l1 d3 l1 d6 l5, PS)” is 359.
The value for “GTTACTGCCTTCTTAC (sugars l4 d7 l1 d2 l2, PS)” was 255.
The figure for “TGGCAAGCATCCTGTA (sugars llddlddddddllldl, PS)” is 397; for “GCAAGCATCCTGT (sugars ldldddddddldl, PS)” it is 181.
Consider TGGCAAGCATCCTGTA (sugars l3 d8 l5, PS), for which the caspase activation (% of PBS control) was found to be 476.
The figure for “TGGCAAGCATCCTGTA (sugars l3 d9 l2 d1 l1, PS)” is 634.
The figure for TTACTGCCTTCTT (sugars l1 d11 l1, PS) is 82.9.
For the sequence “GTTACTGCCTTCTTAC (sugars ldlddddddddldddl, PS)”, the caspase activation (% of PBS control) came out at 115.
The value for “TGGCAAGCATCCTGTA (sugars l1 d1 l1 d11 l2, PS)” was 135; that for GTTACTGCCTTCTTAC (sugars l2 d12 l2, PS) was 103.
The figure for TACTGCCTTCTTA (sugars l1 d10 l2, PS) is 130; for “TTACTGCCTTCTT (sugars ldldddddddldl, PS)” it is 154; for GGCAAGCATCCTG (sugars l2 d9 l2, PS) it is 554.
The value for “TGGCAAGCATCCTGTA (sugars lddldddddddldlll, PS)” was 303.

The record behind these values is the OligoGym collection.
